# In PubChem BioAssay AID2060491 (Molecular Pharmacology Branch, DTP, NCI, 2025):
# System: 857933-349-R-J2-PDC complex spheroids, viability
# Experiment: Anticancer human tumor 857933-349-R-J2-PDC patient-derived colon adenocarcinoma cell line growth inhibition [GQUAD]
# Settings: for IC50: curve of first compound; for viability, T/C: stronger effect = lower value
# How it was run: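 Multi-cell-type spheroids of tumor cells with HUVEC and mesenchymal stem cells, treated with drug combinations. Concentrations descend in half-log steps from near clinical Cmax, or from 10 microM where Cmax is unknown; viability read-out.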
# 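Note: spheroids exposed to compounds for one week before readout.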
# 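Throughout, for viability, T/C: percent viability relative to vehicle DMSO wells taken as 100%.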
compound,measurement,setting,value
CC(C)n1c(=O)n(C)c2cnc3cc(F)c(-c4ccc(OCCCN5CCCCC5)nc4)cc3c21 + Cc1cnc(CNC(=O)c2c(=O)c3ccc(N4CCCN(C)CC4)nc3n3c2sc2ccccc23)cn1,IC50,second compound 0.0316 µM,> 10 µM
same,IC50,second compound 0.1 µM,3.22 µM
same,IC50,second compound 0.316 µM,< 0.0316 µM
same,IC50,second compound 1 µM,< 0.0316 µM
same,IC50,second compound 3.16 µM,< 0.0316 µM
same,IC50,second compound 10 µM,< 0.0316 µM
same,"viability, T/C","second compound 0.0316 µM, first compound 0.0316 µM",76.9%
same,"viability, T/C","second compound 0.0316 µM, first compound 0.1 µM",60.9%
same,"viability, T/C","second compound 0.0316 µM, first compound 0.316 µM",73.1%
same,"viability, T/C","second compound 0.0316 µM, first compound 1 µM",69.2%
same,"viability, T/C","second compound 0.0316 µM, first compound 3.16 µM",73.3%
same,"viability, T/C","second compound 0.0316 µM, first compound 10 µM",54.3%
same,"viability, T/C","second compound 0.1 µM, first compound 0.0316 µM",43.9%
same,"viability, T/C","second compound 0.1 µM, first compound 0.1 µM",45.5%
same,"viability, T/C","second compound 0.1 µM, first compound 0.316 µM",52.8%
same,"viability, T/C","second compound 0.1 µM, first compound 1 µM",52%
same,"viability, T/C","second compound 0.1 µM, first compound 3.16 µM",57.7%
same,"viability, T/C","second compound 0.1 µM, first compound 10 µM",31.4%
same,"viability, T/C","second compound 0.316 µM, first compound 0.0316 µM",32.7%
same,"viability, T/C","second compound 0.316 µM, first compound 0.1 µM",39.1%
same,"viability, T/C","second compound 0.316 µM, first compound 0.316 µM",33%
same,"viability, T/C","second compound 0.316 µM, first compound 1 µM",35.2%
same,"viability, T/C","second compound 0.316 µM, first compound 3.16 µM",39.1%
same,"viability, T/C","second compound 0.316 µM, first compound 10 µM",17.5%
same,"viability, T/C","second compound 1 µM, first compound 0.0316 µM",9.65%
same,"viability, T/C","second compound 1 µM, first compound 0.1 µM",10.9%
same,"viability, T/C","second compound 1 µM, first compound 0.316 µM",8.38%
same,"viability, T/C","second compound 1 µM, first compound 1 µM",8.38%
same,"viability, T/C","second compound 1 µM, first compound 3.16 µM",11%
same,"viability, T/C","second compound 1 µM, first compound 10 µM",6.11%
same,"viability, T/C","second compound 3.16 µM, first compound 0.0316 µM",3.19%
same,"viability, T/C","second compound 3.16 µM, first compound 0.1 µM",3.85%
same,"viability, T/C","second compound 3.16 µM, first compound 0.316 µM",4.08%
same,"viability, T/C","second compound 3.16 µM, first compound 1 µM",3.05%
same,"viability, T/C","second compound 3.16 µM, first compound 3.16 µM",4.81%
same,"viability, T/C","second compound 3.16 µM, first compound 10 µM",1.31%
same,"viability, T/C","second compound 10 µM, first compound 0.0316 µM",3.24%
same,"viability, T/C","second compound 10 µM, first compound 0.1 µM",2.19%
same,"viability, T/C","second compound 10 µM, first compound 0.316 µM",2.95%
same,"viability, T/C","second compound 10 µM, first compound 1 µM",1.88%
same,"viability, T/C","second compound 10 µM, first compound 3.16 µM",2.22%
same,"viability, T/C","second compound 10 µM, first compound 10 µM",0.46%
